Laboratory results: US12145925B2, “Phthalazine derivatives as inhibitors of PARP1, PARP2, and/or tubulin useful for the treatment of cancer” (THE REGENTS OF THE UNIVERSITY OF CALIFORNIA, priority 2016, dated 2024)

Molecular target: T1, PARP2 (Homo sapiens, UniProt Q9UGN5)
T1 construct: purchased BPS Bioscience 80552
Experiment: PARP2 enzymatic activity inhibition (BPS Bioscience PARP2 Assay Kit)
Format: biochemical
Conditions: incorporation of biotinylated poly(ADP-ribose) onto histone proteins
Protocol: The half maximal inhibitory concentration (IC50) with respect to PARP2 inhibition was determined for each test compound by using BPS Bioscience PARP2 Assay Kit, according to the manufacturer's protocol (Cat #80552, San Diego, CA). This assay measures the incorporation of biotinylated poly(ADP-ribose) onto histone proteins in a 96-well strip well format. This assay is ideal for the determination of IC50 values of known or suspected PARP inhibitors. Briefly, stock solutions of each test compound were prepared in DMSO. Histone strip wells were incubated for 30 minutes at room temperature with 50 μl/well of 1×PARP Buffer to rehydrate the histones. Serial dilutions of either test compound were added to appropriate wells. Diluted PARP enzyme (0.5 Unit/well) was then added to the wells containing compounds, and incubated for 10 minutes at room temperature. […] Three types of control wells were also analyzed; i. A negative control without PARP was prepared to determine background absorbance. ii. […] The reactions were then stopped by adding 50 μl per well of 0.2M HCl or 5% Phosphoric Acid and read the absorbance at 450 nm. The IC50 values were determined by performing non-linear regression analysis fitting velocities and the logarithm of inhibitor concentrations to a sigmoidal dose response with a variable slope model using the GraphPad Prism 6.0 software. […]

T1 sequence (Q9UGN5 whole entry): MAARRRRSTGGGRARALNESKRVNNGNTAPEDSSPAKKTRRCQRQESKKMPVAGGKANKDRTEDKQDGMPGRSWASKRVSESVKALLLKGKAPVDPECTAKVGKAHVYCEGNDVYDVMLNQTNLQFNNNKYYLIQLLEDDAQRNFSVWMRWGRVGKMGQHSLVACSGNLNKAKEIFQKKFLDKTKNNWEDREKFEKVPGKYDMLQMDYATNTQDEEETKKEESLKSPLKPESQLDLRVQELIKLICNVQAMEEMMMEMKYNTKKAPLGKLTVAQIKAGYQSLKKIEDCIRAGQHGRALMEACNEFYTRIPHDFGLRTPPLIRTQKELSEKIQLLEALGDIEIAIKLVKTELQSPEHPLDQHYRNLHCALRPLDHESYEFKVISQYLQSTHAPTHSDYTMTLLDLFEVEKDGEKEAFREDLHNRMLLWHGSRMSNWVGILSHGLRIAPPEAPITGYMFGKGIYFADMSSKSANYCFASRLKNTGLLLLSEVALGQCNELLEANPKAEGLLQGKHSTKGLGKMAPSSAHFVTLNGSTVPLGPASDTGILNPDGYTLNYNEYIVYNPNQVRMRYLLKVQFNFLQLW

IC50: 0.05 nM
SMILES: COC(=O)Nc1nc2cc(-c3cc(Cc4n[nH]c(=O)c5ccccc45)ccc3F)ccc2[nH]1 [Ex 1.1, methyl (5-(2-fluoro-5-((4-oxo-3,4-dihydrophthalazin-1-yl)methyl)phenyl)-1H-benzimidazol-2-yl)carbamate]
